Here are results for 17 compounds from patent publication US11420936B2, “Hypoxia inducible factor-2(alpha) inhibitors and their use in the treatment of diseases” (priority 2020, dated 2022).

Structures are written as SMILES. Some results are limits rather than exact numbers.

In general, EC50 refers to the concentration at which the effect is half-maximal.

Chain of HIF-2α (Q99814 whole entry): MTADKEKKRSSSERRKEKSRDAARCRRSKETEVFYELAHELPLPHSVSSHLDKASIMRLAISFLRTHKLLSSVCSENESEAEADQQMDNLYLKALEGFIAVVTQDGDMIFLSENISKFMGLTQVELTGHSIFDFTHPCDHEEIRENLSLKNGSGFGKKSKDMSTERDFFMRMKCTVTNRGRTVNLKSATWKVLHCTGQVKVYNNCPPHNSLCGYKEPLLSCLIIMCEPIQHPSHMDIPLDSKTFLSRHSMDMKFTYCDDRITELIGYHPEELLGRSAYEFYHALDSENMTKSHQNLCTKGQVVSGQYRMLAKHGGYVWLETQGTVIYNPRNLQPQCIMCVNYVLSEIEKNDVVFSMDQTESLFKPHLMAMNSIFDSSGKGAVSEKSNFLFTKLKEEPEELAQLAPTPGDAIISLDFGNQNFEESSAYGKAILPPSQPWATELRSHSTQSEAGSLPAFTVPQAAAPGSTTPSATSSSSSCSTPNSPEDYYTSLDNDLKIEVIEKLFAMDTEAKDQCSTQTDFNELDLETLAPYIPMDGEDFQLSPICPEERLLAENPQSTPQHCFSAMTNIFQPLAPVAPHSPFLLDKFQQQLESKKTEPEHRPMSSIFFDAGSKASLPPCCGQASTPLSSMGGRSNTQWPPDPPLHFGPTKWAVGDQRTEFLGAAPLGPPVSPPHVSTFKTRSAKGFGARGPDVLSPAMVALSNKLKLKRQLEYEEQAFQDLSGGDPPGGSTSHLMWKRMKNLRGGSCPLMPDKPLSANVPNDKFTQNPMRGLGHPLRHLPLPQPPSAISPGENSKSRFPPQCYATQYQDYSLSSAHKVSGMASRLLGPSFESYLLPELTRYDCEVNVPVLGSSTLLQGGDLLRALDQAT
Chain of HIF-2α/ARNT dimerization (Q99814 whole entry): as above

The first test has as its target HIF-2α (Homo sapiens (Human), UniProt Q99814). The test can be described thus: cell-based.
Conditions: not given
Type of test: cell-based. The method, then:
The ability of the disclosed compounds to inhibit HIF-2α was measured by determining VEGF expression in 786-O cells. About 7500 786-O cells were seeded into each well of a 96-well, white, clear bottom plate (07-200-566, Fisher Scientific) with 200 ul growth medium. Four hours later, compounds were dispensed into wells by Tecan D300e digital dispenser with starting concentration of 10 uM and ½ log of dilution down to 1 nM as final concentration. Each concentration of treatment was performed in duplicate. About 20 hours later, medium was removed and fresh medium was added, followed by compounds treatment as described above. 24 hours later, cell culture medium was collected to determine VEGF concentration using an ELISA kit (R&D systems, cat #DVE00) following the manufacturer's instruction.
The EC50 is calculated by GraphPad Prism using the dose-response-inhibition (four parameter) equation. The plate with cells was then subjected to CellTiter-Glo luminescence cell viability assay (Promega) to determine the effect of these compounds on cell numbers after the above treatment.
`[2H]C1([2H])[C@@]2(O)c3c(ccc(Oc4cc(F)cc(C#N)c4)c3[C@@]1([2H])F)C(F)(F)C2(F)F` [Compound 21, 3-fluoro-5-(((1S,2aR)-1,3,3,4,4-pentafluoro-2a-hydroxy-2,2a,3,4-tetrahydro-1H-cyclopenta[cd]inden-7-yl-1,2,2-d3)oxy)benzonitrile] came in with an EC50 of 6 nM.

The same test, now with this note: inhibition of VEGF expression in 786-O cells, ELISA of culture medium; read-out: EC50.
Turning to `N#Cc1cc(F)cc(Oc2ccc3c4c2[C@@H](F)[C@H](F)[C@]4(O)C(F)(F)C3(F)F)c1` [Compound 24b, 3-fluoro-5-(((1R,2R,2aS)-1,2,3,3,4,4-hexafluoro-2a-hydroxy-2,2a,3,4-tetrahydro-1H-cyclopenta[cd]inden-7-yl)oxy)benzonitrile], the EC50 came out at 11 nM.
Still for that read-out and setting: the same measure for `CC1(O)CC2(O)c3c(ccc(Oc4cc(F)cc(C#N)c4)c31)C(F)(F)C2(F)F` (stereo not shown) [Compound 11, 3-fluoro-5-((3,3,4,4-tetrafluoro-1,2a-dihydroxy-1-methyl-2,2a,3,4-tetrahydro-1H-cyclopenta[cd]inden-7-yl)oxy)benzonitrile]: > 5000 nM; for `N#Cc1cc(F)cc(Oc2ccc3c4c2[C@@H](F)C[C@]4(O)C(F)(F)C3(F)F)c1` [Compound 5, 3-fluoro-5-(((1S,2aR)-1,3,3,4,4-pentafluoro-2a-hydroxy-2,2a,3,4-tetrahydro-1H-cyclopenta[cd]inden-7-yl)oxy)benzonitrile]: 6 nM; for `C=C1C[C@@]2(O)c3c(ccc(Oc4cc(F)cc(C#N)c4)c31)C(F)(F)C2(F)F` [Compound 23a, (R)-3-fluoro-5-((3,3,4,4-tetrafluoro-2a-hydroxy-1-methylene-2,2a,3,4-tetrahydro-1H-cyclopenta[cd]inden-7-yl)oxy)benzonitrile]: 7 nM.
Still for that read-out and setting: under `C=C1CC2(O)c3c(ccc(Oc4cc(F)cc(C#N)c4)c31)C(F)(F)C2(F)F` (stereo not shown) [Compound 1, 3-fluoro-5-((3,3,4,4-tetrafluoro-2a-hydroxy-1-methylene-2,2a,3,4-tetrahydro-1H-cyclopenta[cd]inden-7-yl)oxy)benzonitrile] stands 13 nM.
On the same count and under the same terms, under `N#Cc1cc(F)cc(Oc2ccc3c4c2C2(CC2)CC4(O)C(F)(F)C3(F)F)c1` (stereo not shown) [Compound 9, 3-fluoro-5-((3,3,4,4-tetrafluoro-2a-hydroxy-2,2a,3,4-tetrahydrospiro[cyclopenta[cd]indene-1,1′-cyclopropan]-7-yl)oxy)benzonitrile] stands 170 nM; under `CC1(F)CC2(O)c3c(ccc(Oc4cc(F)cc(C#N)c4)c31)C(F)(F)C2(F)F` (stereo not shown) [Compound 12, 3-fluoro-5-((1,3,3,4,4-pentafluoro-2a-hydroxy-1-methyl-2,2a,3,4-tetrahydro-1H-cyclopenta[cd]inden-7-yl)oxy)benzonitrile], 100 nM; under `N#Cc1cc(F)cc(Oc2ccc3c4c2C(F)CC4(O)C(F)(F)C3(F)F)c1` (stereo not shown) [Compound 4, 3-fluoro-5-((1,3,3,4,4-pentafluoro-2a-hydroxy-2,2a,3,4-tetrahydro-1H-cyclopenta[cd]inden-7-yl)oxy)benzonitrile], 10 nM.
Turning to `OC12CC(F)c3c(Oc4cncc(F)c4)ccc(c31)C(F)(F)C2(F)F` (stereo not shown) [Compound 8, 1,3,3,4,4-pentafluoro-7-((5-fluoropyridin-3-yl)oxy)-1,2,3,4-tetrahydro-2aH-cyclopenta[cd]inden-2a-ol], the EC50 stood at 320 nM.
On the same count and under the same terms, under `N#Cc1cc(F)cc(Oc2ccc3c4c2CC(F)(F)C4(O)CC3F)c1` (stereo not shown) [Compound 19, 3-fluoro-5-((1,3,3-trifluoro-2a-hydroxy-2,2a,3,4-tetrahydro-1H-cyclopenta[cd]inden-5-yl)oxy)benzonitrile] stands 4100 nM.
Turning to `N#Cc1cc(F)cc(Oc2ccc3c4c2C(F)CC4(N)C(F)(F)C3(F)F)c1` (stereo not shown) [Compound 14, 3-((2a-amino-1,3,3,4,4-pentafluoro-2,2a,3,4-tetrahydro-1H-cyclopenta[cd]inden-7-yl)oxy)-5-fluorobenzonitrile], the EC50 came to 630 nM.
Consider `N#Cc1cc(F)cc(Oc2ccc3c4c2C(F)(F)CC4(F)C(F)(F)C3(F)F)c1` (stereo not shown) [Compound 15, 3-fluoro-5-((1,1,2a,3,3,4,4-heptafluoro-2,2a,3,4-tetrahydro-1H-cyclopenta[cd]inden-7-yl)oxy)benzonitrile], for which the concentration for a half-maximal effect (EC50) is > 5000 nM.
Same read-out and setting: under `CC1CC2(O)c3c(ccc(Oc4cc(F)cc(C#N)c4)c31)C(F)(F)C2(F)F` (stereo not shown) [Compound 10, 3-fluoro-5-((3,3,4,4-tetrafluoro-2a-hydroxy-1-methyl-2,2a,3,4-tetrahydro-1H-cyclopenta[cd]inden-7-yl)oxy)benzonitrile] stands 410 nM; under `N#Cc1cc(F)cc(Oc2ccc3c4c2[C@@H](F)[C@@H](F)[C@]4(O)C(F)(F)C3(F)F)c1` [Compound 24a, 3-fluoro-5-(((1R,2S,2aS)-1,2,3,3,4,4-hexafluoro-2a-hydroxy-2,2a,3,4-tetrahydro-1H-cyclopenta[cd]inden-7-yl)oxy)benzonitrile], 2 nM; under `N#Cc1cc(F)cc(Oc2ccc3c4c2CCC4(O)C(F)(F)C3(F)F)c1` (stereo not shown) [Compound 13, 3-fluoro-5-((3,3,4,4-tetrafluoro-2a-hydroxy-2,2a,3,4-tetrahydro-1H-cyclopenta[cd]inden-7-yl)oxy)benzonitrile], 330 nM.
Still for that read-out and setting: under `N#Cc1cc(F)cc(Oc2ccc3c4c2[C@H](F)C[C@]4(O)C(F)(F)C3(F)F)c1` [Compound 7, 3-fluoro-5-(((1R,2aR)-1,3,3,4,4-pentafluoro-2a-hydroxy-2,2a,3,4-tetrahydro-1H-cyclopenta[cd]inden-7-yl)oxy)benzonitrile] stands 2100 nM.

In another test the target is HIF-2α/ARNT dimerization (Homo sapiens (Human), UniProt Q99814). Description: Co-immunoprecipitation assay for inhibition of HIF-2α and ARNT dimerization in PASMC and HPAEC. The conditions noted are these: 0.01 μM, PASMC/HPAEC under hypoxia condition (1% O2). It counts as cell-based. The method, then:
FIG. 1 provides results of a co-immunoprecipitation assay for measuring inhibition of HIF-2α and ARNT dimerization in Primary Pulmonary Artery Smooth Muscle Cells (PASMC) and Human Pulmonary Artery Endothelial Cells (HPAEC).
Primary Pulmonary Artery Smooth Muscle Cells (PASMC, ATCC #PCS-100-023) were cultured in Vascular Cell Basal Medium (ATCC #PCS-100-030) supplemented with Vascular Smooth Muscle Cell Growth Kit (ATCC #PCS-100-042). Primary Pulmonary Artery Endothelial Cells (HPAEC, ATCC #PCS-100-022) were cultured in Vascular Cell Basal Medium (ATCC #PCS-100-030) supplemented with Endothelial Cell Growth Kit-BBE (ATCC #PCS-100-040). 0.5×10^6 cells were seeded into 6-well cell culture plates (Corning #3736) in 2 mL of media and cultured in a 37° C. cell culture incubator with atmospheric levels of oxygen and 5% CO2 overnight. The following day, cells were cultured in normoxia condition (atmospheric levels of oxygen and 5% CO2) or in hypoxia condition (1% O2 and 5% CO2) and treated with dimethyl sulfoxide (DMSO) or Compound 24a at 0.001, 0.01, 0.1, and 1 μM for 24 h.
After treatment, cells were washed with ice-cold PBS (containing compounds as in treatment step). […] Supernatant (cell lysate) was transferred to a new tube and protein concentration was measured by BCA protein assay. […]
Cell lysates were also analyzed by immunoblot (Western analysis). […]
On to `N#Cc1cc(F)cc(Oc2ccc3c4c2[C@@H](F)[C@@H](F)[C@]4(O)C(F)(F)C3(F)F)c1` [Compound 24a, 3-fluoro-5-(((1R,2S,2aS)-1,2,3,3,4,4-hexafluoro-2a-hydroxy-2,2a,3,4-tetrahydro-1H-cyclopenta[cd]inden-7-yl)oxy)benzonitrile], for which the “Disruption of HIF-2α/ARNT dimerization at 0.01 μM” value is given as “efficiently disrupt the HIF-2α/ARNT dimerization”.

Staying with this test, now noted: PASMC and HPAEC, 0.001, 0.01, 0.1 and 1 μM for 24 h, FIG. 1.
On to `N#Cc1cc(F)cc(Oc2ccc3c4c2[C@@H](F)[C@@H](F)[C@]4(O)C(F)(F)C3(F)F)c1` [Compound 24a, 3-fluoro-5-(((1R,2S,2aS)-1,2,3,3,4,4-hexafluoro-2a-hydroxy-2,2a,3,4-tetrahydro-1H-cyclopenta[cd]inden-7-yl)oxy)benzonitrile], for which the “Disruption of HIF-2α/ARNT dimerization (HIF-2α protein co-precipitated with ARNT)” value is reported as “reduced in the lysate of cells treated with Compound 24a in a dose-dependent manner”.
